Data reported in ChEMBL document CHEMBL3044897, “Pharmacophore-based predictive model generation for potent antimalarials targeting haem detoxification pathway” (Med Chem Res, 2007).
pIC50: −log10 of the molar value.

Legend:
[1] = system: Plasmodium falciparum; assay: Antimalarial activity against chloroquine-sensitive Plasmodium falciparum 3D7 assessed as incorporation of [3H]hypoxanthine after 48 hr microdilution method; format: functional, organism-based
[2] = system: Plasmodium falciparum; assay: Antimalarial activity against chloroquine-resistant Plasmodium falciparum K1 assessed as incorporation of [3H]hypoxanthine after 48 hr microdilution method; format: functional, organism-based
[3] = system: Heme; assay: Inhibition of heme polymerization in Plasmodium falciparum after 15 min by liquid scintillation counting analysis in presence of [14C]-hemin chloride

| SMILES | pIC50 [1] | pIC50 [2] | pIC50 [3] |
| --- | --- | --- | --- |
| CCN(CC)Cc1cc(Nc2ccnc3cc(Cl)ccc23)ccc1O | 8.11 | 7.74 | 4.82 |
| CCN(CC)CCCC(C)Nc1ccncc1 (stereo unspecified) | 4.92 | 4.82 | 4.04 |
| Oc1ccc(Nc2ccnc3cc(Cl)ccc23)cc1 | 5.85 |  | 4.72 |
| CCN(CC)Cc1cc(Nc2ccncc2)ccc1O | 6.17 |  | 4.14 |
| O[C@@H](c1cc(C(F)(F)F)nc2c(C(F)(F)F)cccc12)[C@H]1CCCCN1 (relative stereo) [(S,R)-MEFLOQUINE] | 7.64 | 8.03 | 4.33 |
| Oc1ccc(Nc2ccnc3cc(Cl)ccc23)cc1CN1CCCC1 [AMOPYROQUINE] | 8.28 | 7.92 | 4.52 |
| NCc1cc(Nc2ccnc3cc(Cl)ccc23)ccc1O [BIDESETHYL AMODIAQUINE] | 7.68 | 6.77 | 4.14 |
| CC(CCCN)Nc1ccnc2cc(Cl)ccc12 (stereo unspecified) [BIDESETHYL CHLOROQUINE] | 7.26 |  | 4.24 |
| CCN(CC)CCCC(C)Nc1ccnc2cc(Cl)ccc12 (stereo unspecified) [CHLOROQUINE] |  |  | 4.62 |
| C=C[C@H]1CN2CC[C@H]1C[C@H]2[C@H](O)c1ccnc2ccccc12 [CINCHONIDINE] | 7.40 | 7.04 | 4.57 |
| C=C[C@H]1CN2CC[C@H]1C[C@@H]2[C@@H](O)c1ccnc2ccccc12 [CINCHONINE] | 7.68 | 7.25 | 4.64 |
| CC(CCCN1CCCC1)Nc1ccnc2cc(Cl)ccc12 (stereo unspecified) [Chloroquine-pyrolidinyl] | 7.72 |  | 4.36 |
| CCN(CC)Cc1cc(Nc2ccnc3cc(Cl)ccc23)cc(-c2ccc(Cl)cc2)c1 [DEHYDROXY TEBAQUINE] | 7.38 |  | 4.29 |
| CCNCc1cc(Nc2ccnc3cc(Cl)ccc23)ccc1O [DESETHYL AMODIAQUINE] | 8.16 | 7.41 | 4.37 |
| CCNCCCC(C)Nc1ccnc2cc(Cl)ccc12 (stereo unspecified) [DESETHYLCHLOROQUINE] | 7.72 | 6.14 | 4.35 |
| CCCCN(CCCC)CCC(O)c1cc2c(Cl)cc(Cl)cc2c2cc(C(F)(F)F)ccc12 (stereo unspecified) [HALOFANTRINE] | 8.24 | 8.55 | 3.74 |
| CC(C)(C)NCc1cc(Nc2ccnc3cc(Cl)ccc23)ccc1O [N-TERT-BUTYL-AMODIAQUINE] | 8.26 | 8.04 | 4.49 |
| COc1ccc2nc3cc(Cl)ccc3c(Nc3cc(CN4CCCC4)c(O)c(CN4CCCC4)c3)c2n1 [PYRONARIDINE] | 8.24 | 8.04 | 4.19 |
| CCN(CC)CCCC(C)Nc1c2ccc(Cl)cc2nc2ccc(OC)cc12 (stereo unspecified) [QUINACRINE] | 7.89 |  | 4.39 |
| C=C[C@H]1CN2CC[C@H]1C[C@@H]2[C@@H](O)c1ccnc2ccc(OC)cc12 [QUINIDINE] | 7.68 |  | 4.62 |
| C=C[C@H]1CN2CC[C@H]1C[C@H]2[C@H](O)c1ccnc2ccc(OC)cc12 [QUININE] | 7.47 |  | 4.19 |
| CCN(CC)Cc1cc(Nc2ccnc3cc(Cl)ccc23)cc(-c2ccc(Cl)cc2)c1O [TEBAQUINE] | 8.02 | 7.89 | 4.28 |
